Experimental data published in patent US10757937B2, “Sulfonamides that activate ABA receptors” (The Regents of the University of California, priority 2014, dated 2020).
Where two headings read alike, the source gives them in different places.

Experiments:
PYR1 = biological target: T1, PYR1 (Arabidopsis thaliana, UniProt O49686); assay: receptor-mediated PP2C (HAB1) inhibition in vitro assay; assay type: biochemical; conditions: for remaining activity at 50 µM: 50 uM of the test compound
T1 construct: 6X-His; made in house; host or cells: E. coli BL21[DE3]pLysS
T1 sequence (O49686 1-191): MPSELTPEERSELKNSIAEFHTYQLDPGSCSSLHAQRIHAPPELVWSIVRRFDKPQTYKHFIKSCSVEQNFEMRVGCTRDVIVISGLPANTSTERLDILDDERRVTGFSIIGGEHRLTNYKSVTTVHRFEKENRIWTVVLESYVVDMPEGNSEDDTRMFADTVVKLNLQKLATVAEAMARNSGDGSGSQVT
T1 sequence (Q9CAJ0 23-511 partner): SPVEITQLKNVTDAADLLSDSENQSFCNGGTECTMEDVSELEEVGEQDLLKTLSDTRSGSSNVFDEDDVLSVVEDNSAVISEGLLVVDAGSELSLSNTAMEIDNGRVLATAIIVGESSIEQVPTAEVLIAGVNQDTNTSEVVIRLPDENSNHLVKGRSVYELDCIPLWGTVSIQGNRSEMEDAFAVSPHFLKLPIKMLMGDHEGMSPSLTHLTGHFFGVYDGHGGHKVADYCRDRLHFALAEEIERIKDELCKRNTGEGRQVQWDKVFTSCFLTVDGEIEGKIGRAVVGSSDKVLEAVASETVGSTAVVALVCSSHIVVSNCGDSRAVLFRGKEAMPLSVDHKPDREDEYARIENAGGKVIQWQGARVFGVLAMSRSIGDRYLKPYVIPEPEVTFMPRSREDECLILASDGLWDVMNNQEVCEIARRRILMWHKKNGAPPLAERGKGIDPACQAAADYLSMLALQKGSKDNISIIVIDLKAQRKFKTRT
Method in brief: (§1)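 Compounds, tested at 25 μM or 50 uM with ABA at 10 uM, were incubated with recombinant receptor and 50 nM GST-HAB1 (2:1 ratio) in MnCl2-containing Tris-OAc buffer, pH 7.9. Phosphatase activity was followed by 4-methylumbelliferyl-phosphate fluorescence.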

PYL3 = biological target: T2, PYL3 (Arabidopsis thaliana, UniProt Q9SSM7); assay: as above; assay type: biochemical; conditions: for remaining activity at 50 µM: 50 uM of the test compound
T2 construct: 6X-His; made in house; host or cells: E. coli BL21[DE3]pLysS
T2 sequence (Q9SSM7 1-209): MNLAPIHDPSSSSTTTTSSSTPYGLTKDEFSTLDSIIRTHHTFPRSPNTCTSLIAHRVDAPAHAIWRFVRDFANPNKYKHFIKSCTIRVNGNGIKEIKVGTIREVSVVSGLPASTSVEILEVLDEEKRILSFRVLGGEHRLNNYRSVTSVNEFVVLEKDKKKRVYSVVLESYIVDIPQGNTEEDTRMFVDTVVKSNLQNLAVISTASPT
T2 sequence (Q9CAJ0 23-511 partner): T1 sequence (Q9CAJ0 23-511 partner)
Method in brief: as §1

PYL10 = biological target: T3, PYL10 (Arabidopsis thaliana, UniProt Q8H1R0); assay: as above; assay type: biochemical; conditions: for remaining activity at 50 µM: 50 uM of the test compound
T3 construct: 6X-His; made in house; host or cells: E. coli BL21[DE3]pLysS
T3 sequence (Q8H1R0 1-183): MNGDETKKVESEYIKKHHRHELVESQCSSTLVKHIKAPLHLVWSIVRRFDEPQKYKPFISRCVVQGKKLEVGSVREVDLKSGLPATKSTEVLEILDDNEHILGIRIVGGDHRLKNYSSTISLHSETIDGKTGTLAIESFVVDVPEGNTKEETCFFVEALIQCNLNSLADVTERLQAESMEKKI
T3 sequence (Q9CAJ0 23-511 partner): T1 sequence (Q9CAJ0 23-511 partner)
Method in brief: as §1

[1] = test system: Arabidopsis seed germination and hypocotyl growth; assay: Arabidopsis seed germination and hypocotyl growth; assay type: in vivo; conditions: for minimal effective concentration: Arabidopsis thaliana; for Hypocotyl Growth Inhibition / Germination Inhibition: Germination Inhibition II, tested at 10 and 50 uM; for Hypocotyl Growth Inhibition: lowest concentration that inhibited hypocotyl growth in wells where seeds germinated; for Germination Inhibition: lowest of the two concentrations that inhibited
Method in brief: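 Wild-type seeds germinated on ½× Murashige and Skoog medium with compound at 10 and 50 uM, or in a later series at 1, 5, 10, 25 and 50 uM. Reported value is the lowest tested concentration that inhibited germination or hypocotyl growth in wells where seeds germinated.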

[2] = Table VIII, tested at 10 or 50 μM, ABA at 1 μM, lowest inhibiting concentration, − = none, read-out: Germination Inhibition
[3] = Table VIII, tested at 10 or 50 μM, lowest inhibiting concentration, − = none, read-out: Hypocotyl Growth Inhibition
[4] = Table VII, read-out: PP2C Dose Curves PYL10 (IC50)
[5] = Germination Effects III, tested at 1, 5, 10, 25 and 50 uM, lowest concentration inhibiting hypocotyl growth, — = none, read-out: Growth Inhibition
[6] = Table VII, read-out: PP2C Dose Curves PYL3 (IC50)
[7] = Table VII, read-out: PP2C Dose Curves PYR1 (IC50)
[8] = Table XII-B, calculated from dose curves, read-out: PP2C Activity (IC50 in uM) PYR1
[9] = Table XII-B, calculated from dose curves, read-out: PP2C Activity (IC50 in uM) PYL3
[10] = Table XII-B, calculated from dose curves, read-out: PP2C Activity (IC50 in uM) PYL10

| IC50 (PYL10; [4]) [µM] | Structure (SMILES) | minimal effective concentration [1, 2] [µM] | minimal effective concentration [1, 3] [µM] | Hypocotyl Growth Inhibition ([1]; − = none) [µM] | Germination Inhibition ([1]; − = none) [µM] | also measured |
| --- | --- | --- | --- | --- | --- | --- |
|  | CC1=CC(=O)CC(C)(C)[C@@]1(O)/C=C/C(C)=C\C(=O)O [ABA, Abscisic acid, reference compound] |  |  |  |  | PP2C Activity PYR1 (PYR1; ABA (10 μM)): 6.0; PP2C Activity PYL3 (PYL3; ABA (10 μM)): 5.4; PP2C Activity PYL10 (PYL10; ABA (10 μM)): 13.8 |
|  | CC(C)(C(=O)NS(=O)(=O)Cc1ccc([N+](=O)[O-])cc1)c1ccccc1 [Compound 3] | 50 | 10 | 10 | 50 |  |
| > 50 | CC(C)(C(=O)NS(=O)(=O)Cc1ccc(C#N)cc1)c1ccc(Cl)cc1 [Compound 6] | 50 | 10 | 10 | 50 |  |
|  | CC(C)(C(=O)NS(=O)(=O)Cc1ccc(C#N)cc1)c1ccc(Cl)c(Cl)c1 [Compound 7] | 50 | 10 | 10 | 50 |  |
| > 50 | CC(C)(C(=O)NS(=O)(=O)Cc1ccc(C#N)cc1)c1ccc(F)cc1 [Compound 13] | 10 | 10 |  | 10 | minimal effective concentration [1, 5]: 5 µM; minimal effective concentration ([1]; Germination Effects III, tested at 1, 5, 10, 25 and 50 uM, lowest inhibiting concentration, — = none, read-out: Germination Inhibition): 10 µM |
| 31.5 | CC(C)(C(=O)NS(=O)(=O)Cc1ccc(C#N)cc1)c1cccc(C#N)c1 [Compound 18] |  |  |  |  | IC50 (PYL3; [6]): > 50 µM |
| 50.8 | CCC(CC)(C(=O)NS(=O)(=O)Cc1ccc([N+](=O)[O-])cc1)c1ccccc1 [Compound 19] | 10 |  |  | 10 | IC50 (PYR1; [7]): > 50 µM; IC50 (PYL3; [6]): > 50 µM |
| > 50 | CC(C)(C(=O)NS(=O)(=O)Cc1ccc(C#N)cc1)c1ccccc1 [Compound 23] | 50 | 10 | 10 | 50 |  |
| > 50 | N#Cc1ccc(CS(=O)(=O)NC(=O)C2(c3ccccc3F)CCCC2)cc1 [Compound 25] | 50 | 10 | 10 | 50 |  |
| 41.6 | N#Cc1ccc(CS(=O)(=O)NC(=O)C2(c3cccc(F)c3)CCCC2)cc1 [Compound 26] | 50 | 10 | 10 | 50 |  |
| > 50 | N#Cc1ccc(CS(=O)(=O)NC(=O)C2(c3ccccc3)CCC2)cc1 [Compound 29] | 50 | 10 | 10 | 50 |  |
|  | N#Cc1ccc(CS(=O)(=O)NC(=O)C2(c3ccc(Br)cc3)CC2)cc1 [Compound 30] |  | 50 | 50 |  | IC50 (PYL3; [6]): > 50 µM |
| > 50 | N#Cc1ccc(CS(=O)(=O)NC(=O)C2(c3ccc(F)cc3)CCC2)cc1 [Compound 32] | 50 | 10 | 10 | 50 |  |
| > 50 | N#Cc1ccc(CS(=O)(=O)NC(=O)C2(c3ccc(F)cc3)CC2)cc1 [Compound 35] |  | 10 | 10 |  |  |
| 17.9 | COc1ccccc1C1(C(=O)NS(=O)(=O)Cc2ccc(C#N)cc2)CCC1 [Compound 42] | 50 | 10 | 10 | 50 |  |
| > 50 | Cc1cccc(C2(C(=O)NS(=O)(=O)Cc3ccc(C#N)cc3)CCCC2)c1 [Compound 43] | 50 | 10 | 10 | 50 |  |
| 79.1 | Cc1ccccc1C1(C(=O)NS(=O)(=O)Cc2ccc(C#N)cc2)CC1 [Compound 44] |  | 50 | 50 |  |  |
| 4.46 | N#Cc1ccc(CS(=O)(=O)NC(=O)C2(c3ccc(F)cc3)CCCCC2)cc1 [Compound 51] | 10 |  |  | 10 |  |
|  | O=C(NS(=O)(=O)Cc1ccc([N+](=O)[O-])cc1)C1(c2ccccc2)CCCCC1 [Compound 63] |  |  |  |  | remaining activity at 50 µM (PYR1): 101%; IC50 (PYR1; [8]): > 50 µM; remaining activity at 50 µM (PYL3): 127%; IC50 (PYL3; [9]): > 50 µM; remaining activity at 50 µM (PYL10): 88.9%; IC50 (PYL10; [10]): > 50 µM |
|  | O=C(NS(=O)(=O)Cc1ccc(F)cc1)C1(c2ccccc2)CCCCC1 [Compound 64] |  |  |  |  | remaining activity at 50 µM (PYR1): 98.4%; IC50 (PYR1; [8]): > 50 µM; remaining activity at 50 µM (PYL3): 97.4%; IC50 (PYL3; [9]): > 50 µM; remaining activity at 50 µM (PYL10): 89.8%; IC50 (PYL10; [10]): > 50 µM |
|  | CC(C)COC(=O)NS(=O)(=O)Cc1ccc(C#N)cc1 [Compound 65, 2-Methylpropyl N-[(4-cyanophenyl)methanesulfonyl]carbamate] |  |  |  |  | minimal effective concentration [1, 5]: 50 µM; remaining activity at 50 µM (PYR1): 96.2%; IC50 (PYR1; [8]): > 50 µM; remaining activity at 50 µM (PYL3): 92.9%; IC50 (PYL3; [9]): > 50 µM; remaining activity at 50 µM (PYL10): 39.2%; IC50 (PYL10; [10]): 19.2 µM |
|  | N#Cc1ccc(CS(=O)(=O)NC(=O)C(c2ccccc2)c2ccccc2)cc1 [Compound 71, N-[(4-Cyanophenyl)methanesulfonyl]-2,2-diphenylacetamide] |  |  |  |  | remaining activity at 50 µM (PYR1): 97.9%; IC50 (PYR1; [8]): > 50 µM; remaining activity at 50 µM (PYL3): 102%; IC50 (PYL3; [9]): > 50 µM; remaining activity at 50 µM (PYL10): 86.5%; IC50 (PYL10; [10]): > 50 µM |
|  | N#Cc1ccc(CS(=O)(=O)NC(=O)C(c2ccc(F)cc2)c2ccc(F)cc2)cc1 [Compound 72, N-[(4-Cyanophenyl)methanesulfonyl]-2,2-bis(4-fluorophenyl)acetamide] |  |  |  |  | remaining activity at 50 µM (PYR1): 93.9%; IC50 (PYR1; [8]): > 50 µM; remaining activity at 50 µM (PYL3): 100%; IC50 (PYL3; [9]): > 50 µM; remaining activity at 50 µM (PYL10): 98%; IC50 (PYL10; [10]): > 50 µM |
|  | N#Cc1ccc(CS(=O)(=O)NC(=O)C(C2CCCCC2)C2CCCCC2)cc1 [Compound 73, N-[(4-Cyanophenyl)methanesulfonyl]-2,2-cyclohexylacetamide] |  |  |  |  | remaining activity at 50 µM (PYR1): 91.6%; IC50 (PYR1; [8]): > 50 µM; remaining activity at 50 µM (PYL3): 92.7%; IC50 (PYL3; [9]): > 50 µM; remaining activity at 50 µM (PYL10): 85.7%; IC50 (PYL10; [10]): > 50 µM |

| Structure (SMILES) | IC50 (PYL10; [4]) [µM] | minimal effective concentration [1, 2] [µM] | minimal effective concentration [1, 3] [µM] | Hypocotyl Growth Inhibition ([1]; − = none) [µM] | Germination Inhibition ([1]; − = none) [µM] | also measured |
| --- | --- | --- | --- | --- | --- | --- |
| N#Cc1ccc(CS(=O)(=O)NC(=O)C2(c3ccc(F)cc3)CCCC2)cc1 [Compound 24] | 14.8 | 10 |  |  | 10 | IC50 (PYR1; [7]): > 50 µM |
| N#Cc1ccc(CS(=O)(=O)NC(=O)C2(c3cccc(C#N)c3)CC2)cc1 [Compound 50] | > 50 |  |  |  |  | IC50 (PYL3; [6]): 20.8 µM |
